Activity calls are given as the source filed them. The calls are words filed in the database; no cut-off is given here.
Assays:
Format in all cases: functional
NCI-H460 = experiment: Growth inhibition of human NCI-H460 cells assessed as growth inhibition at 10 uM by sulforhodamine B assay; settings: read-out: GI
DU-145 = experiment: Growth inhibition of human DU145 cells assessed as growth inhibition at 10 uM by sulforhodamine B assay; settings: read-out: GI
MOLT-4 [1] = experiment: Growth inhibition of human MOLT4 cells assessed as cell growth at 10 uM by sulforhodamine B assay; settings: read-out: Activity
OVCAR-3 [2] = experiment: Growth inhibition of human OVCAR3 cells assessed as growth inhibition at 10 uM by sulforhodamine B assay; settings: read-out: GI
U-251 = experiment: Growth inhibition of human U251 cells assessed as cell growth at 10 uM by sulforhodamine B assay; settings: read-out: Activity
MDA-MB-468 [3] = experiment: Growth inhibition of human MDA-MB-468 cells assessed as cell growth at 10 uM by sulforhodamine B assay; settings: read-out: Activity
NCI-H322M [4] = experiment: Growth inhibition of human NCI-H322M cells assessed as growth inhibition at 10 uM by sulforhodamine B assay
SK-OV-3 = experiment: Growth inhibition of human SKOV3 cells assessed as growth inhibition at 10 uM by sulforhodamine B assay; settings: read-out: GI
IGROV-1 = experiment: Growth inhibition of human IGROV1 cells assessed as growth inhibition at 10 uM by sulforhodamine B assay; settings: read-out: GI
HL-60(TB) [5] = experiment: Growth inhibition of human HL-60(TB) cells assessed as growth inhibition at 10 uM by sulforhodamine B assay
UACC-62 [6] = experiment: Growth inhibition of human UACC62 cells assessed as cell growth at 10 uM by sulforhodamine B assay; settings: read-out: Activity
SNB-19 = experiment: Growth inhibition of human SNB19 cells assessed as cell growth at 10 uM by sulforhodamine B assay; settings: read-out: Activity
HCT-15 [7] = experiment: Growth inhibition of human HCT15 cells assessed as cell growth at 10 uM by sulforhodamine B assay; settings: read-out: Activity
HCT-15 [8] = experiment: Growth inhibition of human HCT15 cells assessed as growth inhibition at 10 uM by sulforhodamine B assay; settings: read-out: GI
UACC-257 = experiment: Growth inhibition of human UACC257 cells assessed as cell growth at 10 uM by sulforhodamine B assay; settings: read-out: Activity
SK-MEL-28 [9] = experiment: Growth inhibition of human SK-MEL-28 cells assessed as cell growth at 10 uM by sulforhodamine B assay; settings: read-out: Activity
COLO 205 = experiment: Growth inhibition of human COLO205 cells assessed as growth inhibition at 10 uM by sulforhodamine B assay; settings: read-out: GI
[10] = Growth inhibition of human HCC2998 cells assessed as cell growth at 10 uM by sulforhodamine B assay; settings: HCC 2998, read-out: Activity
NCI-H322M [11] = experiment: Growth inhibition of human NCI-H322M cells assessed as cell growth at 10 uM by sulforhodamine B assay; settings: read-out: Activity
SK-MEL-28 [12] = experiment: Growth inhibition of human SK-MEL-28 cells assessed as growth inhibition at 10 uM by sulforhodamine B assay; settings: read-out: GI
786-0 [13] = experiment: Growth inhibition of human 786-0 cells assessed as cell growth at 10 uM by sulforhodamine B assay; settings: read-out: Activity
UACC-62 [14] = experiment: Growth inhibition of human UACC62 cells assessed as growth inhibition at 10 uM by sulforhodamine B assay
ACHN = experiment: Growth inhibition of human ACHN cells assessed as cell growth at 10 uM by sulforhodamine B assay; settings: read-out: Activity
MDA-MB-468 [15] = experiment: Growth inhibition of human MDA-MB-468 cells assessed as growth inhibition at 10 uM by sulforhodamine B assay; settings: read-out: GI
[16] = Growth inhibition of human EKVX cells assessed as growth inhibition at 10 uM by sulforhodamine B assay; settings: read-out: GI
MDA-MB-435 [17] = experiment: Growth inhibition of human MDA-MB-435 cells assessed as growth inhibition at 10 uM by sulforhodamine B assay; settings: read-out: GI
786-0 [18] = experiment: Growth inhibition of human 786-0 cells assessed as growth inhibition at 10 uM by sulforhodamine B assay
[19] = Growth inhibition of human NCI-ADR-RES cells assessed as growth inhibition at 10 uM by sulforhodamine B assay; settings: read-out: GI
NCI-H226 = experiment: Growth inhibition of human NCI-H226 cells assessed as growth inhibition at 10 uM by sulforhodamine B assay; settings: read-out: GI
MOLT-4 [20] = experiment: Growth inhibition of human MOLT4 cells assessed as growth inhibition at 10 uM by sulforhodamine B assay; settings: read-out: GI
SF-295 [21] = experiment: Growth inhibition of human SF295 cells assessed as cell growth at 10 uM by sulforhodamine B assay; settings: read-out: Activity
OVCAR-3 [22] = experiment: Growth inhibition of human OVCAR3 cells assessed as cell growth at 10 uM by sulforhodamine B assay; settings: read-out: Activity
HT-29 = experiment: Growth inhibition of human HT-29 cells assessed as cell growth at 10 uM by sulforhodamine B assay; settings: read-out: Activity
HCT-116 = experiment: Growth inhibition of human HCT116 cells assessed as growth inhibition at 10 uM by sulforhodamine B assay; settings: read-out: GI
TK-10 = experiment: Growth inhibition of human TK10 cells assessed as growth inhibition at 10 uM by sulforhodamine B assay; settings: read-out: GI
HL-60(TB) [23] = experiment: Growth inhibition of human HL-60(TB) cells assessed as cell growth at 10 uM by sulforhodamine B assay; settings: read-out: Activity
SK-MEL-2 = experiment: Growth inhibition of human SK-MEL-2 cells assessed as cell growth at 10 uM by sulforhodamine B assay; settings: read-out: Activity
OVCAR-5 [24] = experiment: Growth inhibition of human OVCAR5 cells assessed as growth inhibition at 10 uM by sulforhodamine B assay; settings: read-out: GI
NCI-H23 [25] = experiment: Growth inhibition of human NCI-H23 cells assessed as cell growth at 10 uM by sulforhodamine B assay; settings: read-out: Activity
NCI-H522 = experiment: Growth inhibition of human NCI-H522 cells assessed as cell growth at 10 uM by sulforhodamine B assay; settings: read-out: Activity
NCI-H23 [26] = experiment: Growth inhibition of human NCI-H23 cells assessed as growth inhibition at 10 uM by sulforhodamine B assay; settings: read-out: GI
OVCAR-5 [27] = experiment: Growth inhibition of human OVCAR5 cells assessed as cell growth at 10 uM by sulforhodamine B assay; settings: read-out: Activity
SNB-75 = experiment: Growth inhibition of human SNB75 cells assessed as cell growth at 10 uM by sulforhodamine B assay; settings: read-out: Activity
MDA-MB-435 [28] = experiment: Growth inhibition of human MDA-MB-435 cells assessed as cell growth at 10 uM by sulforhodamine B assay; settings: read-out: Activity
RPMI-8226 = experiment: Growth inhibition of human RPMI8226 cells assessed as growth inhibition at 10 uM by sulforhodamine B assay; settings: read-out: GI
A498 = experiment: Growth inhibition of human A498 cells assessed as growth inhibition at 10 uM by sulforhodamine B assay
M14 = experiment: Growth inhibition of human M14 cells assessed as cell growth at 10 uM by sulforhodamine B assay; settings: read-out: Activity
SF-295 [29] = experiment: Growth inhibition of human SF295 cells assessed as growth inhibition at 10 uM by sulforhodamine B assay
HOP-62 = experiment: Growth inhibition of human HOP62 cells assessed as cell growth at 10 uM by sulforhodamine B assay; settings: read-out: Activity

## C/C=C(/C)C(=O)O[C@@H]1CC(C)(C)C[C@H]2C3=CC[C@@H]4[C@@]5(C)CC[C@H](O)C(C)(C)[C@@H]5CC[C@@]4(C)[C@]3(C)CC[C@@]12C(=O)O [Reduced Lantadene A]
NCI-H460
  inhibition of growth at 10 µM: 64.9%
DU-145
  inhibition of growth at 10 µM: 25.1%
MOLT-4 [1]
  growth at 10 µM: 41.4%
OVCAR-3 [2]
  inhibition of growth at 10 µM: 68%
U-251
  growth at 10 µM: 38.2%
MDA-MB-468 [3]
  growth at 10 µM: 66.1%
NCI-H322M [4]
  growth inhibition (GI): Active
SK-OV-3
  inhibition of growth at 10 µM: 58.2%
IGROV-1
  inhibition of growth at 10 µM: 64.9%
HL-60(TB) [5]
  growth inhibition (GI): Active
UACC-62 [6]
  growth at 10 µM: -28.1%
SNB-19
  growth at 10 µM: -53%
HCT-15 [7]
  growth at 10 µM: 21.2%
HCT-15 [8]
  inhibition of growth at 10 µM: 78.8%
UACC-257
  growth at 10 µM: 60.6%
SK-MEL-28 [9]
  growth at 10 µM: 33.7%
COLO 205
  inhibition of growth at 10 µM: 71.8%
[10]
  growth at 10 µM: 26.4%
NCI-H322M [11]
  growth at 10 µM: -8.43%
SK-MEL-28 [12]
  inhibition of growth at 10 µM: 66.3%
786-0 [13]
  growth at 10 µM: -42.9%
UACC-62 [14]
  growth inhibition (GI): Active
ACHN
  growth at 10 µM: 8.12%
MDA-MB-468 [15]
  inhibition of growth at 10 µM: 33.9%
[16]
  inhibition of growth at 10 µM: 63.5%
MDA-MB-435 [17]
  inhibition of growth at 10 µM: 35.1%
786-0 [18]
  growth inhibition (GI): Active
[19]
  inhibition of growth at 10 µM: 30.2%
NCI-H226
  inhibition of growth at 10 µM: 57.9%
MOLT-4 [20]
  inhibition of growth at 10 µM: 58.6%
SF-295 [21]
  growth at 10 µM: -14.4%
OVCAR-3 [22]
  growth at 10 µM: 32%
HT-29
  growth at 10 µM: 55.8%
HCT-116
  inhibition of growth at 10 µM: 80%
TK-10
  inhibition of growth at 10 µM: 33.2%
HL-60(TB) [23]
  growth at 10 µM: -50.8%
SK-MEL-2
  growth at 10 µM: 54.1%
OVCAR-5 [24]
  inhibition of growth at 10 µM: 36%
NCI-H23 [25]
  growth at 10 µM: 64.7%
NCI-H522
  growth at 10 µM: 49.7%
NCI-H23 [26]
  inhibition of growth at 10 µM: 35.3%
OVCAR-5 [27]
  growth at 10 µM: 64%
SNB-75
  growth at 10 µM: 11.9%
MDA-MB-435 [28]
  growth at 10 µM: 64.9%
RPMI-8226
  inhibition of growth at 10 µM: 78.9%
A498
  growth inhibition (GI): Active
M14
  growth at 10 µM: 28.7%
SF-295 [29]
  growth inhibition (GI): Active
HOP-62
  growth at 10 µM: 24.3%

## CC(C)=CC(=O)O[C@@H]1CC(C)(C)C[C@H]2C3=CC[C@@H]4[C@@]5(C)CC[C@H](O)C(C)(C)[C@@H]5CC[C@@]4(C)[C@]3(C)CC[C@@]12C(=O)O [Reduced Lantadene B]
NCI-H460
  inhibition of growth at 10 µM: 49.7%
DU-145
  inhibition of growth at 10 µM: 13.4%
MOLT-4 [1]
  growth at 10 µM: 49.6%
OVCAR-3 [2]
  inhibition of growth at 10 µM: 26.1%
U-251
  growth at 10 µM: 39.2%
MDA-MB-468 [3]
  growth at 10 µM: 113%
NCI-H322M [4]; read-out: GI
  inhibition of growth at 10 µM: 40.3%
SK-OV-3
  inhibition of growth at 10 µM: 10.6%
IGROV-1
  inhibition of growth at 10 µM: 21.7%
HL-60(TB) [5]; read-out: GI
  inhibition of growth at 10 µM: 86%
UACC-62 [6]
  growth at 10 µM: 67.2%
SNB-19
  growth at 10 µM: 85.6%
HCT-15 [7]
  growth at 10 µM: 25.1%
HCT-15 [8]
  inhibition of growth at 10 µM: 74.9%
UACC-257
  growth at 10 µM: 92.7%
SK-MEL-28 [9]
  growth at 10 µM: 88.3%
COLO 205
  inhibition of growth at 10 µM: 31.9%
[10]
  growth at 10 µM: 62%
NCI-H322M [11]
  growth at 10 µM: 59.7%
SK-MEL-28 [12]
  inhibition of growth at 10 µM: 11.7%
786-0 [13]
  growth at 10 µM: 61.8%
UACC-62 [14]; read-out: GI
  inhibition of growth at 10 µM: 32.8%
ACHN
  growth at 10 µM: 46.3%
MDA-MB-468 [15]
  inhibition of growth at 10 µM: < 10%
[16]
  inhibition of growth at 10 µM: 52.3%
MDA-MB-435 [17]
  inhibition of growth at 10 µM: < 10%
786-0 [18]; read-out: GI
  inhibition of growth at 10 µM: 38.2%
[19]
  inhibition of growth at 10 µM: 45.5%
NCI-H226
  inhibition of growth at 10 µM: 21.3%
MOLT-4 [20]
  inhibition of growth at 10 µM: 50.4%
SF-295 [21]
  growth at 10 µM: 44.6%
OVCAR-3 [22]
  growth at 10 µM: 73.9%
HT-29
  growth at 10 µM: 49.3%
HCT-116
  inhibition of growth at 10 µM: 72.8%
TK-10
  inhibition of growth at 10 µM: 20.1%
HL-60(TB) [23]
  growth at 10 µM: 14%
SK-MEL-2
  growth at 10 µM: 86.5%
OVCAR-5 [24]
  inhibition of growth at 10 µM: < 10%
NCI-H23 [25]
  growth at 10 µM: 63.4%
NCI-H522
  growth at 10 µM: 67.7%
NCI-H23 [26]
  inhibition of growth at 10 µM: 36.6%
OVCAR-5 [27]
  growth at 10 µM: 119%
SNB-75
  growth at 10 µM: 73.2%
MDA-MB-435 [28]
  growth at 10 µM: 95.3%
RPMI-8226
  inhibition of growth at 10 µM: 76.3%
A498; read-out: GI
  inhibition of growth at 10 µM: < 10%
M14
  growth at 10 µM: 94%
SF-295 [29]; read-out: GI
  inhibition of growth at 10 µM: 55.4%
HOP-62
  growth at 10 µM: 53.7%
